± gives the expanded uncertainty stated by the source.
Details: Liquid, Closed cell (Static) method

CCC [propane]
Details | vapor or sublimation pressure [kPa]
233.22 K | 111.3 ± 2
235.21 K | 121.3 ± 2
237.18 K | 131.7 ± 2
239.2 K | 143.2 ± 2
241.22 K | 155.4 ± 2
243.21 K | 168.2 ± 2
245.26 K | 182.1 ± 2
247.13 K | 195.6 ± 2
249.14 K | 211.1 ± 2
251.14 K | 227.4 ± 2
253.14 K | 244.5 ± 2
255.14 K | 262.5 ± 2
257.13 K | 281.5 ± 2.1
259.15 K | 301.8 ± 2.1
261.12 K | 322.7 ± 2.1
263.15 K | 345.3 ± 2.1
265.14 K | 368.6 ± 2.1
267.14 K | 393.2 ± 2.1
269.14 K | 419 ± 2.1
271.14 K | 446.1 ± 2.1
273.14 K | 474.3 ± 2.1
275.14 K | 503.9 ± 2.1
277.14 K | 535 ± 2.2
279.15 K | 567.4 ± 2.2
281.15 K | 601.4 ± 2.2
283.15 K | 636.7 ± 2.2
285.15 K | 673.5 ± 2.3
287.14 K | 711.8 ± 2.3
289.15 K | 752 ± 2.3
291.16 K | 793.7 ± 2.3
293.15 K | 836.8 ± 2.4

FCC(F)(F)F [1,1,1,2-tetrafluoroethane]
Details | vapor or sublimation pressure [kPa]
243.14 K | 84.1 ± 2
245.14 K | 92.4 ± 2
247.14 K | 101.4 ± 2
249.15 K | 111.1 ± 2
251.16 K | 121.4 ± 2
253.15 K | 132.5 ± 2
255.14 K | 144.3 ± 2
257.16 K | 157.1 ± 2
259.17 K | 170.6 ± 2
261.16 K | 185 ± 2
263.14 K | 200.2 ± 2
265.13 K | 216.4 ± 2
267.13 K | 233.7 ± 2
269.14 K | 252.1 ± 2
271.14 K | 271.6 ± 2
273.13 K | 292.1 ± 2.1
275.13 K | 313.9 ± 2.1
277.16 K | 337.2 ± 2.1
279.16 K | 361.5 ± 2.1
281.16 K | 387.3 ± 2.1
283.17 K | 414.3 ± 2.1
285.14 K | 442.1 ± 2.1
287.15 K | 472.3 ± 2.1
289.14 K | 503.4 ± 2.2
291.14 K | 536.3 ± 2.2
293.14 K | 570.9 ± 2.2

— the NIST ThermoML archive (doi:10.1016/j.jct.2010.11.001)
